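In this assay, cells in 96-well plates receive the compound at five concentrations for 48 hours. Endpoints are linearly interpolated between the surrounding concentrations. Abbreviation: GI50, concentration required for 50% inhibition of growth.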 Activity calls are given as the source filed them. No stated cut-off is given here; in the data, active = GI50 up to about 1.1 µM and inactive = higher.
What was measured:
Assay in all cases: NCI tumour cell line growth inhibition, 48 h
786-0 = test system: 786-0
A498 = test system: A498
A549 = test system: A549
COLO 205 = test system: COLO 205
HT-29 = test system: HT-29
IGROV-1 = test system: IGROV-1
M14 = test system: M14
OVCAR-4 = test system: OVCAR-4
RXF 393 = test system: RXF 393
SNB-19 = test system: SNB-19
TK-10 = test system: TK-10
UACC-257 = test system: UACC-257
UACC-62 = test system: UACC-62
XF498 = test system: XF498
NCI-H226 = test system: NCI-H226

Measured: GI50

O=C1C(=O)N(c2cc(Cl)ccc2Cl)C(=O)C(=O)C1c1nc2ccccc2o1
inactive: 786-0 > 100 µM | A498 > 100 µM | A549 > 100 µM | COLO 205 > 100 µM | HT-29 > 100 µM | IGROV-1 > 100 µM | M14 > 91.8 µM | OVCAR-4 > 100 µM | RXF 393 > 100 µM | SNB-19 > 100 µM | TK-10 > 100 µM | UACC-257 > 100 µM | UACC-62 > 100 µM | XF498 > 100 µM

CC1NOC(=O)C1/N=N/c1ccccc1Cl (stereo not given)
inactive: 786-0 26.5 µM | A498 17 µM | A549 63.7 µM | COLO 205 57.7 µM | IGROV-1 73.1 µM | M14 40.6 µM | OVCAR-4 39.9 µM | RXF 393 26.4 µM | SNB-19 51.1 µM | TK-10 90.4 µM | UACC-257 17.8 µM | UACC-62 31.1 µM | XF498 27.9 µM

Cc1nc(N)nn1C1OCC(O)C(O)C1O (stereo not given)
inactive: 786-0 > 100 µM | A498 > 100 µM | A549 > 100 µM | COLO 205 > 100 µM | HT-29 > 100 µM | IGROV-1 > 100 µM | M14 > 100 µM | OVCAR-4 > 100 µM | RXF 393 > 100 µM | SNB-19 > 100 µM | TK-10 > 100 µM | UACC-257 > 100 µM | UACC-62 > 100 µM | XF498 > 100 µM

COc1cc2ccc3c4c(OC)cc(OC)c(OC)c4c([O-])[n+](C)c3c2cc1OC
inactive: 786-0 > 100 µM | A498 3.76 µM | A549 4.01 µM | COLO 205 2.58 µM | HT-29 6.47 µM | IGROV-1 6.98 µM | OVCAR-4 18.1 µM | SNB-19 15.7 µM | TK-10 > 40.3 µM | UACC-257 17.9 µM | UACC-62 25.1 µM | XF498 2.34 µM

COc1ccc(C2=CC3CCC2C3)cc1 (stereo not given)
inactive: 786-0 > 100 µM | A498 77.3 µM | A549 > 100 µM | COLO 205 > 100 µM | HT-29 > 100 µM | IGROV-1 > 100 µM | M14 > 100 µM | OVCAR-4 > 100 µM | RXF 393 > 100 µM | SNB-19 > 100 µM | TK-10 > 100 µM | UACC-257 > 100 µM | UACC-62 > 100 µM | XF498 > 100 µM

O=C(O)C1Cc2[nH]c3ccccc3c2C2CCCC12 (stereo not given)
inactive: 786-0 > 100 µM | A498 > 100 µM | A549 > 100 µM | COLO 205 > 100 µM | IGROV-1 > 100 µM | M14 > 100 µM | NCI-H226 5.15 µM | OVCAR-4 > 100 µM | SNB-19 > 100 µM | TK-10 > 100 µM | UACC-257 > 100 µM | UACC-62 > 100 µM | XF498 > 100 µM

Reference: ChEMBL document CHEMBL1201862, “PubChem BioAssay data set” (2004)
